Test results reported in ChEMBL document CHEMBL4308841, “Synthesis, in vitro antiproliferative activity, and kinase inhibitory effects of pyrazole-containing diarylureas and diarylamides” (Eur J Med Chem, 2018).

Key:
[1] = tested on: HL-60(TB); test: Growth inhibition of human HL-60(TB) cells incubated for 48 hrs by sulforhodamine B assay; assay type: functional, cell-based; settings: HL-60, 48 h
[2] = tested on: A549; test: Growth inhibition of human A549/ATCC cells incubated for 48 hrs by sulforhodamine B assay; assay type: functional, cell-based; settings: A549, 48 h
[3] = tested on: UACC-62; test: Growth inhibition of human UACC62 cells incubated for 48 hrs by sulforhodamine B assay; assay type: functional, cell-based; settings: UACC-62, 48 h
[4] = tested on: SK-OV-3; test: Growth inhibition of human SKOV3 cells incubated for 48 hrs by sulforhodamine B assay; assay type: functional, cell-based; settings: SK-OV-3, 48 h
[5] = tested on: HCT-116; test: Growth inhibition of human HCT116 cells assessed as cell growth at 0.01 uM incubated for 48 hrs by sulforhodamine B assay relative to control; assay type: functional; settings: HCT-116, 48 h, read-out: Activity
[6] = tested on: SW-620; test: Growth inhibition of human SW620 cells assessed as cell growth at 0.01 uM incubated for 48 hrs by sulforhodamine B assay relative to control; assay type: functional; settings: SW-620, 48 h, read-out: Activity
[7] = tested on: SNB-19; test: Growth inhibition of human SNB19 cells assessed as cell growth at 0.01 uM incubated for 48 hrs by sulforhodamine B assay relative to control; assay type: functional; settings: SNB-19, 48 h, read-out: Activity
[8] = tested on: SNB-75; test: Growth inhibition of human SNB75 cells assessed as cell growth at 0.01 uM incubated for 48 hrs by sulforhodamine B assay relative to control; assay type: functional; settings: SNB-75, 48 h, read-out: Activity
[9] = tested on: SK-MEL-2; test: Growth inhibition of human SK-MEL-2 cells assessed as cell growth at 0.01 uM incubated for 48 hrs by sulforhodamine B assay relative to control; assay type: functional; settings: SK-MEL-2, 48 h, read-out: Activity
[10] = tested on: IGROV-1; test: Growth inhibition of human IGROV1 cells assessed as cell growth at 0.01 uM incubated for 48 hrs by sulforhodamine B assay relative to control; assay type: functional; settings: IGROV-1, 48 h, read-out: Activity
[11] = tested on: BT-549; test: Growth inhibition of human BT549 cells assessed as cell growth at 0.01 uM incubated for 48 hrs by sulforhodamine B assay relative to control; assay type: functional; settings: BT-549, 48 h, read-out: Activity
[12] = tested on: NCI-H522; test: Growth inhibition of human NCI-H522 cells assessed as cell growth at 0.1 uM incubated for 48 hrs by sulforhodamine B assay relative to control; assay type: functional; settings: NCI-H522, 48 h, read-out: Activity
[13] = tested on: HCC 2998; test: Growth inhibition of human HCC2998 cells assessed as cell growth at 0.1 uM incubated for 48 hrs by sulforhodamine B assay relative to control; assay type: functional; settings: HCC 2998, 48 h, read-out: Activity
[14] = tested on: OVCAR-5; test: Growth inhibition of human OVCAR5 cells assessed as cell growth at 0.1 uM incubated for 48 hrs by sulforhodamine B assay relative to control; assay type: functional; settings: OVCAR-5, 48 h, read-out: Activity
[15] = tested on: OVCAR-8; test: Growth inhibition of human OVCAR8 cells assessed as cell growth at 0.1 uM incubated for 48 hrs by sulforhodamine B assay relative to control; assay type: functional; settings: OVCAR-8, 48 h, read-out: Activity
[16] = tested on: SK-OV-3; test: Growth inhibition of human SKOV3 cells assessed as cell growth at 0.1 uM incubated for 48 hrs by sulforhodamine B assay relative to control; assay type: functional; settings: SK-OV-3, 48 h, read-out: Activity
[17] = tested on: A498; test: Growth inhibition of human A498 cells assessed as cell growth at 0.1 uM incubated for 48 hrs by sulforhodamine B assay relative to control; assay type: functional; settings: A498, 48 h, read-out: Activity
[18] = tested on: SN12C; test: Growth inhibition of human SN12C cells assessed as cell growth at 0.1 uM incubated for 48 hrs by sulforhodamine B assay relative to control; assay type: functional; settings: read-out: Activity
[19] = tested on: DU-145; test: Growth inhibition of human DU145 cells assessed as cell growth at 0.1 uM incubated for 48 hrs by sulforhodamine B assay relative to control; assay type: functional; settings: DU-145, 48 h, read-out: Activity
[20] = tested on: K562; test: Growth inhibition of human K562 cells assessed as cell growth at 1 uM incubated for 48 hrs by sulforhodamine B assay relative to control; assay type: functional; settings: K562, 48 h, read-out: Activity
[21] = tested on: A549; test: Growth inhibition of human A549/ATCC cells assessed as cell growth at 1 uM incubated for 48 hrs by sulforhodamine B assay relative to control; assay type: functional; settings: A549, 48 h, read-out: Activity
[22] = tested on: NCI-H322M; test: Growth inhibition of human NCI-H322M cells assessed as cell growth at 1 uM incubated for 48 hrs by sulforhodamine B assay relative to control; assay type: functional; settings: read-out: Activity
[23] = tested on: HCC 2998; test: Growth inhibition of human HCC2998 cells assessed as cell growth at 1 uM incubated for 48 hrs by sulforhodamine B assay relative to control; assay type: functional; settings: HCC 2998, 48 h, read-out: Activity
[24] = tested on: HCT-116; test: Growth inhibition of human HCT116 cells assessed as cell growth at 1 uM incubated for 48 hrs by sulforhodamine B assay relative to control; assay type: functional; settings: HCT-116, 48 h, read-out: Activity
[25] = tested on: HCT-15; test: Growth inhibition of human HCT15 cells assessed as cell growth at 1 uM incubated for 48 hrs by sulforhodamine B assay relative to control; assay type: functional; settings: HCT-15, 48 h, read-out: Activity
[26] = tested on: A498; test: Growth inhibition of human A498 cells assessed as cell growth at 1 uM incubated for 48 hrs by sulforhodamine B assay relative to control; assay type: functional; settings: A498, 48 h, read-out: Activity
[27] = tested on: CAKI-1; test: Growth inhibition of human Caki1 cells assessed as cell growth at 1 uM incubated for 48 hrs by sulforhodamine B assay relative to control; assay type: functional; settings: CAKI-1, 48 h, read-out: Activity
[28] = tested on: M14; test: Growth inhibition of human M14 cells assessed as cell growth at 100 uM incubated for 48 hrs by sulforhodamine B assay relative to control; assay type: functional; settings: M14, 48 h, read-out: Activity
[29] = tested on: SK-MEL-2; test: Growth inhibition of human SK-MEL-2 cells assessed as cell growth at 100 uM incubated for 48 hrs by sulforhodamine B assay relative to control; assay type: functional; settings: SK-MEL-2, 48 h, read-out: Activity
[30] = tested on: UACC-62; test: Growth inhibition of human UACC62 cells assessed as cell growth at 100 uM incubated for 48 hrs by sulforhodamine B assay relative to control; assay type: functional; settings: UACC-62, 48 h, read-out: Activity
[31] = tested on: MDA-MB-231; test: Growth inhibition of human MDA-MB-231 cells assessed as cell growth at 100 uM incubated for 48 hrs by sulforhodamine B assay relative to control; assay type: functional; settings: MDA-MB-231, 48 h, read-out: Activity
[32] = read-out: LC50 (the source's name)
[33] = read-out: pLC50 (the source's name) (converted)

COc1cc(Cl)cc(-c2nn(-c3cccc(NC(=O)c4cccc(C(F)(F)F)c4)c3)cc2-c2ccncc2)c1
GI50 ([1]; read-out: GI50): 4.5 µM
LC50 ([1]; read-out: LC50): > 100 µM
TGI ([1]; read-out: TGI): > 100 µM
GI50 ([1]; read-out: pGI50 (converted)): 45.7 µM
LC50 ([1]; read-out: pLC50 (converted)): > 100 µM
TGI ([1]; read-out: pTGI (converted)): > 100 µM
IC50 [2]: 3.62 µM
GI50 ([2]; read-out: GI50): 3.52 µM
CC50 [2, 32]: > 100 µM
TGI ([2]; read-out: TGI): > 100 µM
GI50 ([2]; read-out: pGI50 (converted)): 3.63 µM
CC50 [2, 33]: > 100 µM
TGI ([2]; read-out: pTGI (converted)): > 100 µM
IC50 [3]: 8.04 µM
GI50 ([3]; read-out: GI50): 0.04 µM
CC50 [3, 32]: > 100 µM
TGI ([3]; read-out: TGI): > 100 µM
GI50 ([3]; read-out: pGI50 (converted)): 8.13 µM
CC50 [3, 33]: > 100 µM
TGI ([3]; read-out: pTGI (converted)): > 100 µM
GI50 ([4]; read-out: GI50): > 100 µM
CC50 [4, 32]: > 100 µM
TGI ([4]; read-out: TGI): > 100 µM
GI50 ([4]; read-out: pGI50 (converted)): > 100 µM
CC50 [4, 33]: > 100 µM
TGI ([4]; read-out: pTGI (converted)): > 100 µM
growth at 0.01 µM [5]: 100%
growth at 0.01 µM [6]: 101%
growth at 0.01 µM [7]: 96%
growth at 0.01 µM [8]: 90%
growth at 0.01 µM [9]: 52%
growth at 0.01 µM [10]: 94%
growth at 0.01 µM [11]: 108%
growth at 0.1 µM [12]: 83%
growth at 0.1 µM [13]: 104%
growth at 0.1 µM [14]: 94%
growth at 0.1 µM [15]: 94%
growth at 0.1 µM [16]: 105%
growth at 0.1 µM [17]: 52%
growth at 0.1 µM [18]: 99%
growth at 0.1 µM [19]: 107%
growth at 1 µM [20]: 90%
growth at 1 µM [21]: 75%
growth at 1 µM [22]: 90%
growth at 1 µM [23]: 103%
growth at 1 µM [24]: 71%
growth at 1 µM [25]: 71%
growth at 1 µM [26]: 51%
growth at 1 µM [27]: 90%
growth at 100 µM [28]: 27%
growth at 100 µM [29]: 47%
growth at 100 µM [30]: 40%
growth at 100 µM [31]: -14%

O=C(Nc1cccc(-n2cc(-c3ccncc3)c(-c3cc(O)cc(Cl)c3)n2)c1)c1ccc(N2CCOCC2)c(C(F)(F)F)c1
GI50 ([1]; read-out: GI50): 0.81 µM
LC50 ([1]; read-out: LC50): > 100 µM
TGI ([1]; read-out: TGI): 30.4 µM
GI50 ([1]; read-out: pGI50 (converted)): 0.813 µM
LC50 ([1]; read-out: pLC50 (converted)): > 100 µM
TGI ([1]; read-out: pTGI (converted)): 3.02 µM
IC50 [2]: 1.64 µM
GI50 ([2]; read-out: GI50): 1.54 µM
CC50 [2, 32]: > 100 µM
TGI ([2]; read-out: TGI): 18 µM
GI50 ([2]; read-out: pGI50 (converted)): 1.66 µM
CC50 [2, 33]: > 100 µM
TGI ([2]; read-out: pTGI (converted)): 18.2 µM
IC50 [3]: 1.72 µM
GI50 ([3]; read-out: GI50): 1.72 µM
CC50 [3, 32]: > 100 µM
TGI ([3]; read-out: TGI): 93.8 µM
GI50 ([3]; read-out: pGI50 (converted)): 1.74 µM
CC50 [3, 33]: > 100 µM
TGI ([3]; read-out: pTGI (converted)): 9.33 µM
GI50 ([4]; read-out: GI50): 95.3 µM
CC50 [4, 32]: > 100 µM
TGI ([4]; read-out: TGI): > 100 µM
GI50 ([4]; read-out: pGI50 (converted)): 9.55 µM
CC50 [4, 33]: > 100 µM
TGI ([4]; read-out: pTGI (converted)): > 100 µM
growth at 0.01 µM [5]: 102%
growth at 0.01 µM [6]: 103%
growth at 0.01 µM [7]: 101%
growth at 0.01 µM [8]: 57%
growth at 0.01 µM [9]: 54%
growth at 0.01 µM [10]: 93%
growth at 0.01 µM [11]: 100%
growth at 0.1 µM [12]: 90%
growth at 0.1 µM [13]: 100%
growth at 0.1 µM [14]: 90%
growth at 0.1 µM [15]: 101%
growth at 0.1 µM [16]: 102%
growth at 0.1 µM [17]: 85%
growth at 0.1 µM [18]: 98%
growth at 0.1 µM [19]: 108%
growth at 1 µM [20]: 30%
growth at 1 µM [21]: 52%
growth at 1 µM [22]: 57%
growth at 1 µM [23]: 70%
growth at 1 µM [24]: 58%
growth at 1 µM [25]: 35%
growth at 1 µM [26]: 98%
growth at 1 µM [27]: 53%
growth at 100 µM [28]: -54%
growth at 100 µM [29]: -30%
growth at 100 µM [30]: -31%
growth at 100 µM [31]: -58%
